Results reported in patent US10195198B2, “Methods and compositions for treating diseases and conditions” (Afferent Pharmaceuticals Inc., priority 2014, dated 2019).
pIC50: −log10 of the molar value. “Also recorded” adds a separate entry of the source.

Key:
[1] = tested on: carotid sinus nerve; experiment: isolated carotid body/carotid sinus nerve preparation, wild-type mouse
Description: FIGS. 1A-1D show the effects of Compound A, a benzyl-diaminopyrimidine P2X3 antagonist which is seen to reduce carotid sinus nerve activity and excitatory responses to hypoxia and ATP (or analogs), in an isolated preparation of carotid body/carotid sinus nerves. […] As shown, the dual P2X3 and P2X2/3 antagonist Compound A attenuates basal tonic firing and hypoxia-induced excitation of carotid sinus afferents in an isolated carotid body preparation of mouse. […] The IC50 is in the range between 10-30 μM.

[2] = tested on: carotid sinus nerve; experiment: isolated carotid body/carotid sinus nerve preparation, P2X3 KO mouse (homotrimeric P2X2 mediated responses)
[3] = tested on: carotid sinus nerve; experiment: isolated carotid body/carotid sinus nerve preparation, P2X2 KO mouse (homotrimeric P2X3 mediated responses)

SMILES | pIC50 ([1]; Mus musculus, wild type preparations, reversible, read-out: IC50 for inhibition of the response of sinus nerve to hypoxia) | basal tonic firing and hypoxia-induced excitation of carotid sinus afferents ([1]; wild-type mouse isolated carotid body preparation) | basal tonic firing and hypoxia or ATP-induced excitation of carotid sinus afferents [2] | basal tonic firing and hypoxia, α,β-MeATP induced excitation of carotid sinus afferents ([3]; P2X2 KO mouse isolated carotid body preparation) | potency compared with wild type ([3]; P2X2 KO mouse, lower concentrations effective)
COc1cc(Cc2cnc(N)nc2N)c(C(C)C)cc1OC [Compound A] | 4.52 to 5.00 | attenuates; also recorded: attenuation | fails to attenuate; also recorded: no longer sensitive to inhibition | attenuates | Greater potency; also recorded: more sensitively observed
Cc1nc(N=Nc2ccc(S(=O)(=O)O)cc2S(=O)(=O)O)c(COP(=O)(O)O)c(C=O)c1O [PPADS] | – | – | inhibitory activity | – | –
